Experimental data published in US9023767B2, “γ-Secretase substrates and methods of use” (Memorial Sloan-Kettering Cancer Center, priority 2009, dated 2015).
“And” between values parts separate entries of the source, which are not always exact repeats. Equal entries are not always repeated. One block for each molecule: values may come before it.

Key:
[1] = target: T1, γ-secretase (Mus musculus (Mouse), UniProt P49769); assay: Cellular γ-secretase activity, secreted Aβ40 from N2A APP stable cells; format: cell-based; details: 48 hrs
Procedure: FIG. 5. […] The conditioned media were collected and secreted Aβ40 was measured with 6E10/G2-10 antibodies (mean±SEM; n=3). The activities of the peptide treatments were normalized to the DMSO treatment. […] The same experiments were performed as FIG. 5c. The cell lysates were analyzed by CT-15 antibody. Upper panel: full length APP. Lower panel: CTFs. […] The ΔE-Notch1 (a Notch construct with deletion of the extracellular portion and tagged by Myc) was transfected into HEK293 cells.
After transfection or compound treatment, conditioned cell media were collected and diluted in RIPA buffer. Secreted Aβ peptides were detected by ECL assay using biotinylated 6E10 and ruthenylated G2-10 antibodies.

[2] = target: T2, γ-secretase (Homo sapiens (Human), UniProt P49768+Q92542); assay: In vitro γ-secretase cleavage of Notch1 peptide substrate, HeLa membrane, Val1744 antibody; format: biochemical
Procedure: FIG. 4. […] Various concentrations of inhibitor were incubated with APP substrate (S4) or Notch peptide substrate containing the C-terminal biotinylated transmembrane domain of Notch1 and HeLa cell membrane in the presence of 0.25% CHAPSO. Aβ40 was detected by G2-10 antibody. […] Activities are expressed as percentage relative to reading that was produced in DMSO control. […] Various concentrations of S4 substrate were incubated with HeLa membrane in fixed concentrations of inhibitor as indicated. The double reciprocal velocity (1/v) and substrate concentrations (1/S) are plotted to determine the type of inhibition. […] Assays were conducted as described in FIG. 4A. […] The labeled samples were solubilized with RIPA buffer. Biotinylated proteins were captured with streptavidin-agarose and probed by immunoblotting using antibodies against biotin, PS1-CTF, PS1-NTF, Nicastrin, PEN-2 and APH-1a. HeLa cell membrane proteins were directly loaded onto lanes indicated by an arrow in the PEN-2 and APH-1a blots as positive controls. […] Upper panel: PS1-NTF; Lower panel: PS1-CTF. […] Rev.

[3] = target: T2, γ-secretase; assay: In vitro γ-secretase assay, HeLa membrane, APP-derived substrates, ECL detection; format: biochemical
Procedure: The recombinant proteins were incubated with γ-secretase (40 μg/ml) in the presence or absence of 1 μM γ-secretase inhibitor L-685,458 (CAS [292632-98-5], shown below). The reaction mixture contains 0.25% 3[(3-cholamidopropyl) dimethylammonio]-2-hydroxypropanesulfonic acid (CHAPSO), 0.1 μg/μl BSA, protease inhibitor, 50 mM PIPES, pH 7.0, 5 mM MgCl2, 5 mM CaCl2 and 150 mM KCl. The reaction was incubated for 2.5 hr at 37° C. and stopped by adding RIPA buffer (150 mM NaCl, 1.0% NP-40, 0.5% sodium
[drawing 1] deoxycholate, 0.1% SDS, 50 mM Tris HCl, pH 8.0). The products were detected with various antibody combinations as previously described (Lai et al., 2003; J. Biol. Chem., 278: 22475-22481; Li et al., 2000, Proc. Natl. Acad. Sci. USA, 97: 6138-6143; Yin et al., 2007, J. Biol. Chem., 282:23639-23644) using electrochemiluminescence (ECL). The amount of product was determined using synthetic peptide or recombinant standards. The Km and Vmax were determined from the Michaelis-Menten equation Michaelis-Menten Kinetics (ν=Vm[S]/([…]; ν: initial rate; Vm: maximum velocity; Km: the Michaelis-Menten constant, S: substrate). P-values were calculated from Student t-test. 7.1.5 Cell-Based Aβ Production Assay and Western Blot

[4] = target: T3, γ-secretase (Homo sapiens (Human), UniProt P49768); assay: In vitro γ-secretase assay, solubilized γ-secretase, ECL; format: biochemical; details: Sb4 substrate
From the text: The γ-secretase cleaved Aβ product derived from C100Flag substrate was detected by a pair of antibodies (biotinylated 4G8 and ruthenylated G2-10*) while Sb4 cleaved product was detected by ruthenylated G2-10* alone (FIG. 10a) and quantified using electrochemiluminescence (ECL) technology.
An in vitro assay was based on the one previously reported by Li et al. (2000), except we utilized Sb4 substrate that eliminated the need for biotinylated antibody. […] All assays incorporate ruthenylated G2-10* antibody to detect 40-site cleavage of APP or recombinant Sb4 substrate and quantitated activity by measuring ECL.

[5] = system: A20 mouse lymphoma cells; assay: Lymphoma cell proliferation assay, [3H]thymidine incorporation; format: cell-based; details: 48 hours
Procedure: For a lymphoma cell proliferation assay, A20 mouse lymphoma cells were seeded in a 96-well plate at a concentration of 5×10^5 cells/ml in 100 μl RPMI media containing 2% fetal bovine serum. An additional 100 μl of media containing DMSO or γ-secretase inhibitor was added and incubated for 48 hours at 37° C. After this incubation, the cells were incubated for 5 hours with 2 μCi/ml [^3H]thymidine at 37° C. Proliferative response was then evaluated by harvesting the tritiated DNA from cells using a Skatron cell harvester and proliferation assessed as a function of [^3H]thymidine incorporation measured on a β-counter.

[6] = target: T1, γ-secretase; assay: Cell-based activity assay, N2A cells stably over-expressing APP; details: 24 hrs, Aβ40; read-out: Cell-based (nM), IC50
Procedure: (§1) The potency of two structurally different GSIs was assayed in four unique γ-secretase activity assays. IC50 values were determined from the dose response curves using a non-linear regression analysis in the Prism software. An in vitro assay was based on the one previously reported by Li et al. (2000), except we utilized Sb4 substrate that eliminated the need for biotinylated antibody. The cell-based activity assay used N2A mouse neuroblastoma cells stably over-expressing APP and a biotinylated 4G8 antibody that binds the C-terminus of the amyloid beta peptide. The exo-cell assay incubated HeLa cells simultaneously with GSI, Sb4 substrate as well as 0.25% CHAPSO detergent prior to detecting substrate cleavage. Finally, the extended exo-cell assay first incubated HeLa cells with GSI for 24 hrs. Subsequently, the cells were washed 1× in PBS and then incubated with Sb4 substrate and CHAPSO detergent. The assay was then carried out exactly as described for the original exo-cell method. All assays incorporate ruthenylated G2-10* antibody to detect 40-site cleavage of APP or recombinant Sb4 substrate and quantitated activity by measuring ECL. The latter assays were performed as previously described (Li et al., 2000). In the in vitro assay, recombinant Sb4 substrate was incubated for 2.5 hours at 37° C. in pH 7.0 PIPES buffer in the presence of 0.25% CHAPSO detergent and solubilized γ-secretase at a final concentration of 40 ng/ul. The detection of cleaved substrate was determined using ruthenylated G2-10* antibody. Since the Sb4 substrate is biotinylated additional 6E10 biotinylated antibody used in earlier assays is not required. In the cell-based assay, N2A mouse neuroblastoma cells that stably overexpress amyloid precursor protein were incubated with γ-secretase inhibitors in a final concentration of 1% DMSO for 24 hrs. Following incubation, the supernatant was removed from the cells and assayed for Aβ40, the cleaved APP product, using ruthenylated G2-10* antibody as well as biotinylated 4G8 antibody.

[7] = target: T3, γ-secretase; assay: Exo-cell γ-secretase assay, HeLa cells, Sb4 substrate; format: cell-based
Procedure: Therefore, HeLa cells were first incubated with Sb4 substrate, as well as CHAPSO detergent as depicted in FIG. 14c. Cells were seeded at their indicated concentration in 96-well plates and allowed to attach overnight. The next day, media was removed and cells were washed once with PBS. Fresh media was then added containing 0.25% CHAPSO detergent, Sb4 substrate to a final concentration of 1 μM, and 1% DMSO or γ-secretase inhibitor. This was incubated for 2.5 hours at 37° C. Media was removed and cell debris was pelleted from this media for 5 min. at 3,500 rpm. Supernatant was then added to ruthenylated G2-10* antibody that recognizes cleaved product, but not uncleaved substrate. This was incubated for an additional 2 hours at room temperature. Finally, magnetic streptavidin beads were added to a final concentration of 80 μg/ml and incubated for 30 min. at room temperature. Assay buffer was added to the samples and γ-secretase-mediated cleavage of substrate was monitored using electrochemiluminescence (ECL) (Li et al., 2000). (FIG. 14c).
as §1

[8] = target: T3, γ-secretase; assay: Extended exo-cell γ-secretase assay, HeLa cells; format: cell-based; details: 24 hrs pretreatment; read-out: Extended Exo-Cell (nM), IC50
Procedure: as §1, with “In the cell-based assay, N2A mouse neuroblastoma cells that stably overexpress amyloid precursor protein were incubated with γ-secretase inhibitors in a final concentration of 1% DMSO for 24 hrs. Following incubation, the supernatant was removed from the cells and assayed for Aβ40, the cleaved APP product, using ruthenylated G2-10* antibody as well as biotinylated 4G8 antibody.” left out
The exo-cell assay was adapted to monitor real-time γ-secretase activity and inhibition over extended times of pretreatment regimens. […] This modified, extended treatment exo-cell assay is capable of quantifying remaining γ-secretase activity following drug treatment on virtually any cell type. The IC50 values for Compound E and GSI-34 were calculated using the extended exo-cell assay (Table 3 and FIG. 15d). […]

[9] = target: T1, γ-secretase; assay: In vitro γ-secretase activity from mouse brain membrane; format: biochemical
Procedure: (§2) FIG. 3. Effect of the inhibitory domain on in vitro γ-secretase activity. […] The γ-secretase cleavage site is indicated by an arrow between orange and blue shades. The Aβ17-23 region is marked by dotted square. (B) The kinetic analyses of γ-secretase reactivity with βCTF and βCTFΔ substrates. […] The product Aβ40 was assayed with biotinylated 6E10 and ruthenylated G2-10 antibodies by ECL. […] Note: […] The product Aβ38 was assayed with biotinylated 6E10 and ruthenylated Aβ38 antibodies (purchased from Dr. […]) (data represent the mean of duplicates with variance<10%). (E) The effect of an inhibitory domain on γ-secretase activity for ACID production. HEK293 cell membrane was prepared from cells that have been transfected with β[…] et al., 1999) and βCTFΔ(SPA4CTΔ) constructs for 48 hours. Cell membranes (2 mg/ml) were incubated in the absence and presence of 2 μM L-685,458 and then analyzed by Western blotting with CT-15 antibody (Chen et al., 2002). It was next determined whether γ-secretase from other sources has the same preference for the βCTFΔ substrate. […] Product formation was monitored by G2-10 and G2-11 antibodies, respectively. […] In addition, the γ-secretase activity was assayed for Aβ38 production and ε-cleavage (FIGS. 3D and 3E). The Aβ38-site cleavage was detected with a combination of biotinylated 6E10 and ruthenylated anti-Aβ38 antibodies. […]

[10] = target: T3, γ-secretase; assay: AICD production (ε-cleavage), membranes of transfected HEK293 cells, Western blot; format: biochemical
Procedure: as §2

inhibition at 100 µM ([1]; 100 μM, read-out: inhibition of the production of Aβ): 70%
Molecule: COC(=O)CC[C@@H](NC(=O)[C@H](N)CC(=O)OC)C(=O)N[C@H](C)C(=O)N[C@H](Cc1ccccc1)C(=O)N[C@H](Cc1ccccc1)C(=O)N[C@@H](C(=O)N[C@H](CC(C)C)C(N)=O)C(C)C [RI-PM-1]
effect on secreted Aβ species ([1]; 100, 60 and 30 μM): reduces secreted Aβ species in a dose dependent manner

inhibition of γ-secretase activity, Notch processing [2]: did not inhibit
inhibition of γ-secretase activity, APP processing [3]: did not inhibit
Molecule: VKSEPVEPPL [S2-site derived Notch peptide, N-terminal residues of NEXT]

IC50 [4]: 1 nM
IC50 [6]: 32.4 nM
IC50 ([7]; ECL detection, read-out: Exo-Cell (nM), IC50): 5.9 nM
IC50 ([7]; HTRF detection, read-out: IC50, exo-cell assay): 5.4 nM
IC50 [8]: 38.7 nM and 39 nM
Molecule: O=C(COc1ccc(F)cc1)Nc1ccc2c(c1)CC1CCC(C2)C1NS(=O)(=O)c1ccc(Cl)s1 (centres unmarked) [GSI-34]
reduction of cellular proliferation ([5]; 300 nM): 30%
inhibition of cellular proliferation [5]: able to inhibit cellular proliferation

reaction rate of hydrolysis compared to βCTF, 40-site ([9]; G2-10): 25 times
reaction rate of hydrolysis compared to βCTF, 42-site ([9]; G2-11): 11 times
effect of domain deletion on ε-cleavage (AICD) [10]: no effect
B1: βCTFΔ: βCTF in which the Aβ17-23 inhibitory domain is deleted (protein, listed as Homo sapiens)
chain: GSHMDAEFRHDSGYEVHHQKVGSNKGAIIGLMVGGVVIATVIVITLVMLKKKQYTSIHHGVVEVDAAVTPEERHLSKMQQNGYENPTYKFFEQMQNDYKDDDDK
